For 14 compounds, IC50 results are on record in US7745459B2, “Quinolizinone compound and use thereof as HIV integrase inhibitor” (Japan Tobacco Inc., priority 2004, dated 2010).

Structures are written as SMILES.

By IC50 is commonly meant the point on the concentration scale where inhibition reaches its midpoint.

This assay addresses T1, HIV integrase (Human immunodeficiency virus type 1 group M subtype B, UniProt P12497, F1332H).
T1 construct: HIV integrase full length gene; made in house; host or cells: Escherichia coli BL21 (DE3)
Kind of assay: Determination of enzyme (HIV integrase) inhibitory activity. Format: biochemical. The conditions noted are these: recombinant integrase protein (phenylalanine at codon 185 substituted by histidine); donor/target DNA, absorbance at 450 nm; read-out: Anti-integrase activity (IC50 value). From the text:
The following explains evaluation methods of the HIV integrase inhibitory activity of the compound of the present invention.
HIV integrase full length gene (J. Virol., 67, 425-437 (1993)) in which phenylalanine at codon 185 was substituted by histidine, was inserted between the restriction enzyme NdeI and XhoI sites of plasmid pET21a(+) (Novagen), whereby an integrase expression vector pET21a-INH was constructed.
Escherichia coli recombinant BL21 (DE3) transformed with plasmid pET21a-INH obtained in (i) was shake cultured at 37° C. in a liquid medium containing ampicillin. When the culture reached the logarithmic growth phase, isopropyl-β-D-thiogalactopyranoside was added to promote expression of integrase gene. The culture was continued for 3 hr to promote accumulation of the integrase protein. The recombinant E. coli was collected in pellets by centrifugal separation and preserved at −80° C.
The E. coli was suspended in Lysis buffer (20 mM HEPES (pH 7.5), 5 mM DTT, 10 mM CHAPS, 10% glycerol) containing 1 M sodium chloride and subjected to repeat pressurization and depressurization for rupture, and centrifugal separation at 4° C., 40,000×g, 60 min to recover a water-soluble fraction (supernatant). This was diluted 10-fold with Lysis buffer free of sodium chloride, mixed with SP-Sepharose (Pharmacia Corporation) and stirred at 4° C. for 60 min to allow adsorption of integrase protein to the resin. The resin was washed with Lysis buffer containing 100 mM sodium chloride and the integrase protein was eluted with Lysis buffer containing 1 M sodium chloride.
The eluted integrase protein solution was subjected to a Superdex 75 (Pharmacia Corporation) column for gel filtration. The protein was eluted with Lysis buffer containing 1 M sodium chloride.
The obtained fractions of the integrase protein were collected and preserved at −80° C.
The following DNA synthesized by Greiner was dissolved in TE buffer (10 mM Tris-hydrochloric acid (pH 8.0), 1 mM EDTA) and mixed with donor DNA, target DNA, and each complementary strand (+ and − strands) to 1 μM. The mixture was heated at 95° C. for 5 min, 80° C. for 10 min, 70° C. for 10 min, 60° C. for 10 min, 50° C. for 10 min and 40° C. for 10 min and kept at 25° C. to give a double stranded DNA, which was used for the test.
The donor DNA was diluted with TE buffer to 10 nM, of which 50 μl was added to each well of streptavidin-coated microtiter plate (Roche) and allowed to adsorb at 37° C. for 60 min. The plate was washed with phosphate buffer (Dulbecco's PBS, Sanko Junyaku Co., Ltd.) containing 0.1% Tween 20 and phosphate buffer. Then, a reaction mixture (70 μl) having the following composition, a test substance (10 μl) diluted with the reaction mixture and 100 μg/ml integrase protein (10 μl) were added to each well and reacted at 37° C. for 60 min. Composition of the reaction mixture: 30 mM MOPS (3-morpholinopropanesulfonic acid), 5 mM magnesium chloride, 3 mM DTT (dithiothreitol), 0.1 mg/ml BSA (bovine serum albumin), 5% glycerol, 10% DMSO (dimethyl sulfoxide), 0.01% Tween 20.
Then, 50 nM target DNA (10 μl) was added, and the mixture was reacted at 37° C. for 10 min and washed with phosphate buffer containing 0.1% Tween 20 to stop the reaction.
Then, 100 mU/ml peroxidase labeled anti-digoxigenin antibody solution (Roche, 100 μl) was added, and the mixture was reacted at 37° C. for 60 min, followed by washing with phosphate buffer containing 0.1% Tween 20.
A peroxidase color solution (Bio Rad, 100 μl) was added and allowed to react at room temperature for 4 min. The color reaction was stopped by adding 1N sulfuric acid (100 μl). The absorbance at 450 nm was measured. […]
For the compound `O=C(COc1ccccc1)NCc1cc(C(=O)O)c(=O)n2cc(Cc3cccc(Cl)c3F)ccc12` [Example 51, 7-(3-chloro-2-fluorobenzyl)-4-oxo-1-[(2-phenoxyacetylamino)methyl]-4H-quinolizine-3-carboxylic acid], the IC50 was in the range of 0.01 to 0.1 µM. As for `C[C@@H](CO)c1cc(C(=O)O)c(=O)n2cc(Cc3cccc(Cl)c3F)ccc12` [Example 14, 7-(3-chloro-2-fluorobenzyl)-1-((R)-2-hydroxy-1-methylethyl)-4-oxo-4H-quinolizine-3-carboxylic acid], the IC50 lay in the range of 0.01 to 0.1 µM.

Turning to `COc1cc2c([C@H](CO)C(C)C)cc(C(=O)O)c(=O)n2cc1Cc1cccc(Cl)c1F` [Example 10, 7-(3-chloro-2-fluorobenzyl)-1-((R)-1-hydroxymethyl-2-methylpropyl)-8-methoxy-4-oxo-4H-quinolizine-3-carboxylic acid], the half-inhibitory concentration (IC50) was less than 0.01 µM. Turning to `COC(C)(C)C(=O)NCc1cc(C(=O)O)c(=O)n2cc(Cc3cccc(Cl)c3F)ccc12` [Example 56, 7-(3-chloro-2-fluorobenzyl)-1-[(2-methoxy-2-methylpropionylamino)methyl]-4-oxo-4H-quinolizine-3-carboxylic acid], the IC50 was in the range of 0.1 to 1 µM.

For the compound `CC(=O)NCc1cc(C(=O)O)c(=O)n2cc(Cc3cccc(Cl)c3F)ccc12` [Example 22, 1-(acetylaminomethyl)-7-(3-chloro-2-fluorobenzyl)-4-oxo-4H-quinolizine-3-carboxylic acid], the IC50 fell in the range of 0.01 to 0.1 µM.

Regarding `CC(C)C(=O)NCc1cc(C(=O)O)c(=O)n2cc(Cc3cccc(Cl)c3F)ccc12` [Example 44, 7-(3-chloro-2-fluorobenzyl)-1-(isobutyrylaminomethyl)-4-oxo-4H-quinolizine-3-carboxylic acid], the IC50 lay within 0.01 to 0.1 µM.

For `CCOC(=O)NCc1cc(C(=O)O)c(=O)n2cc(Cc3cccc(Cl)c3F)ccc12` [Example 46, 7-(3-chloro-2-fluorobenzyl)-1-(ethoxycarbonylaminomethyl)-4-oxo-4H-quinolizine-3-carboxylic acid], the 50% inhibitory concentration (IC50) was in the range of 0.01 to 0.1 µM. With `CC(=O)Nc1cc(C(=O)O)c(=O)n2cc(Cc3cccc(Cl)c3F)ccc12` [Example 61, 1-acetylamino-7-(3-chloro-2-fluorobenzyl)-4-oxo-4H-quinolizine-3-carboxylic acid], the IC50 was 0.1 to 1 µM. As for `COc1cc2c([C@H](CO)C(C)(C)C)cc(C(=O)O)c(=O)n2cc1Cc1cccc(Cl)c1F` [Example 17, 7-(3-chloro-2-fluorobenzyl)-1-((R)-1-hydroxymethyl-2,2-dimethylpropyl)-8-methoxy-4-oxo-4H-quinolizine-3-carboxylic acid], the figure is less than 0.01 µM. Turning to `CCC(=O)NCc1cc(C(=O)O)c(=O)n2cc(Cc3cccc(Cl)c3F)ccc12` [Example 42, 7-(3-chloro-2-fluorobenzyl)-4-oxo-1-(propionylaminomethyl)-4H-quinolizine-3-carboxylic acid], the IC50 was in the range of 0.01 to 0.1 µM.

With `CC(C)(C)OC(=O)NCc1cc(C(=O)O)c(=O)n2cc(Cc3cccc(Cl)c3F)ccc12` [Example 35, 1-(tert-butoxycarbonylamino)methyl-7-(3-chloro-2-fluorobenzyl)-4-oxo-4H-quinolizine-3-carboxylic acid], the IC50 lay within 0.01 to 0.1 µM. For `O=C(O)c1cc(CO)c2ccc(Cc3cccc(Cl)c3F)cn2c1=O` [Example 18, 7-(3-chloro-2-fluorobenzyl)-1-hydroxymethyl-4-oxo-4H-quinolizine-3-carboxylic acid], the IC50 lay in the range of 0.01 to 0.1 µM. As for `CC(C)(C)OC(=O)c1cc(C(=O)O)c(=O)n2cc(Cc3cccc(Cl)c3F)ccc12` [Example 62, 7-(3-chloro-2-fluorobenzyl)-4-oxo-4H-quinolizine-1,3-dicarboxylic acid 1-tert-butyl ester], the figure is 0.1 to 1 µM; as for `COC(=O)NCc1cc(C(=O)O)c(=O)n2cc(Cc3cccc(Cl)c3F)ccc12` [Example 24, 7-(3-chloro-2-fluorobenzyl)-1-(methoxycarbonylaminomethyl)-4-oxo-4H-quinolizine-3-carboxylic acid], 0.01 to 0.1 µM.
